Assay results published in patent US5089623A, “Certain imidate insecticides” (Imperial Chemical Industries Plc, priority 1990, dated 1992).

What was measured:
Assay type in all cases: in vivo
[1] = test system: Housefly [Musca domestica]; experiment: Housefly insecticidal test (HF); conditions: per 25 female houseflies, 48 hours
[2] = test system: Tobacco Budworm [Heliothis virescens (Fabricius)] eggs; experiment: Tobacco budworm egg test (TBW-E); conditions: percent in solution
[3] = test system: Cabbage Looper [Trichoplusia ni (Hubner)]; experiment: Cabbage looper test (CL); conditions: second-instar larvae, 3-5 days, percent in solution
[4] = test system: Maize weevil [Sitophilus Zeamais (Motschulsky)]; experiment: Maize weevil test (MW); conditions: adult weevils, treated corn seeds, 48 hours, percent in solution
Procedure: The compounds in Tables 1 and 2 above were tested for insecticidal activity using the following testing procedures. LC50 values, based on the results of these tests and calculated according to dosage-mortality curves, are expressed in Table 3.
Maize weevil [Sitophilus Zeamais (Motschulsky)]
Test compounds were diluted in a 50:50 acetone:water solution. Four corn seeds [Zea mays (L.)] which had been immersed in test solutions for 2-3 seconds and allowed to dry were placed in containers together with 10 adult weevils. The containers were covered and kept at a temperature of about 25° C. Mortality was recorded after 48 hours. Test concentrations ranged from 0.01% down to that at which 50% mortalilty occurred. The LC50 values are expressed below in Table 3 under the heading "MW" in terms of percent of the test compound in solution.

Compound	LC50 HF [1]	LC50 TBW E [2]	LC50 CL [3]	LC50 MW [4]
CC(C)C(=Nc1ccc(C(F)(F)F)cc1Cl)OCc1cccc(Oc2ccc(F)cc2)c1 [Compound 427]	> 100 µg	> 0.1%	< 0.1%	> 0.01%
CC(C)C(=Nc1ccc(C(F)(F)F)cc1Cl)OCc1ccc(F)c(Oc2ccccc2)c1 [Compound 428]	> 100 µg	> 0.1%	0.0017%	> 0.01%
CC(C)C(=Nc1ccc(OCC(F)(F)F)c(F)c1)OCc1cccc(Oc2ccc(Cl)cc2)c1 [Compound 429]	> 100 µg	< 0.1%	0.0017%	> 0.01%
C=C(C)C(=Nc1ccc(C(F)(F)F)cc1)OCc1cccc(Oc2ccccc2)c1 [Compound 430]	< 100 µg	0.032%	0.001%	0.004%
CC(C)C(=Nc1ccc(C(F)(F)F)c(Br)c1)OCc1ccc(F)c(Oc2ccccc2)c1 [Compound 434]	< 100 µg	> 0.1%	0.0017%	0.009%
COc1ccc(N=C(OCc2ccc(F)c(Oc3ccccc3)c2)C(C)C)cc1F [Compound 435]	< 100 µg	0.04%	0.002%	> 0.01%
CC(C)C(=Nc1cccc(OC(F)(F)F)c1)OCc1ccc(F)c(Oc2ccc(Cl)cc2)c1 [Compound 436]	< 100 µg	< 0.1%	0.00075%	> 0.01%
CC(C)C(=Nc1cccc(OC(F)(F)F)c1)OCc1ccc(F)c(Oc2ccccc2)c1 [Compound 437]	< 100 µg	0.025%	0.00075%	> 0.01%
CCc1ccc(N=C(OCc2cccc(Oc3ccc(F)cc3)c2)C(C)C)cc1Cl [Compound 438]	> 100 µg	< 0.1%	0.0009%	> 0.01%
CCOc1ccc(N=C(OCc2ccc(F)c(Oc3ccccc3)c2)C(C)C)cc1F [Compound 439]	> 100 µg	> 0.1%	0.00045%	> 0.01%
CCCc1ccc(N=C(OCc2ccc(F)c(Oc3ccc(F)cc3)c2)C(C)C)cc1 [Compound 440]	> 100 µg	< 0.1%	0.002%	> 0.01%
CC(C)C(=Nc1ccc(Cl)c(F)c1)OCc1ccc(F)c(Oc2ccc(F)cc2)c1 [Compound 441]	< 100 µg	0.016%	0.000025%	0.006%
C=C(C)C(=Nc1ccc(C(F)(F)F)cc1)OCc1cccc(Oc2ccc(F)cc2)c1 [Compound 442]	< 100 µg	0.035%	0.0007%	> 0.01%
Fc1ccc(COC(=Nc2ccc(C(F)(F)F)cc2)C2CC2)cc1Oc1ccccc1 [Compound 443]	< 100 µg	0.017%	0.00015%	< 0.01%
Fc1ccc(COC(=Nc2ccc(C(F)(F)F)cc2)C2CC2)cc1Oc1ccc(Cl)cc1 [Compound 444]	> 100 µg	0.023%	0.00015%	> 0.01%
CC(C)C(=Nc1ccc(C(F)(F)F)cc1[N+](=O)[O-])OCc1ccc(F)c(Oc2ccccc2)c1 [Compound 445]	< 100 µg	> 0.1%	0.00045%	> 0.01%
CCOc1ccc(N=C(OCc2cccc(Oc3ccc(F)cc3)c2)C(C)C)cc1Br [Compound 446]	> 100 µg	< 0.1%	0.0008%	> 0.01%
CC(C)C(=Nc1ccc(F)c(I)c1)OCc1cccc(Oc2ccc(F)cc2)c1 [Compound 449]	13 µg	0.025%	0.0001%	0.0075%
CC(C)C(=Nc1cccc(C(F)(F)F)c1)OC(C)c1cccc(Oc2ccccc2)c1 (stereo not drawn) [Compound 459]	> 100 µg	0.1%	0.008%	> 0.01%
CC(C)C(=Nc1ccc(F)c(Cl)c1)OCc1cccc(Oc2c(F)c(F)c(F)c(F)c2F)c1 [Compound 460]	> 100 µg	> 0.1%	0.02%	> 0.01%
CC(C)C(=Nc1ccc(I)c(Cl)c1)OCc1cccc(Oc2ccc(Cl)cc2)n1 [Compound 471]	< 100 µg	0.018%	0.00018%	> 0.01%

Compound	LC50 HF [1]	LC50 TBW E [2]	LC50 CL [3]	LC50 MW [4]
CC(C)C(=Nc1cccc(C(F)(F)F)c1)OCc1cccc(Oc2ccc(Cl)cc2)n1 [Compound 477]	20 µg	> 0.1%	0.0003%	0.0076%
CC(C)C(=Nc1ccc(Br)cc1)OCc1coc(Cc2ccccc2)c1 [Compound 478]	15 µg	> 0.1%	0.0037%	> 0.01%
CC(C)C(=Nc1cccc(C(F)(F)F)c1)OCc1coc(Cc2ccccc2)c1 [Compound 482]	36 µg	> 0.1%	0.01%	> 0.01%
CC(C)C(=Nc1ccc2c(c1)OCO2)OCc1coc(Cc2ccccc2)c1 [Compound 483]	6 µg	0.05%	0.001%	> 0.01%
CC(C)C(=Nc1ccc(F)cc1F)OCc1coc(Cc2ccccc2)c1 [Compound 486]	15 µg	> 0.1%	> 0.1%	> 0.01%
COCc1c(F)c(F)c(COC(=Nc2cccc(C(F)(F)F)c2)C(C)C)c(F)c1F [Compound 503]	21 µg	0.08%	0.001%	> 0.01%
CC(C)C(=Nc1ccc(C(F)(F)F)cc1)OCc1cccc(Oc2ccccc2)n1 [Compound 504]	< 100 µg	0.05%	0.00025%	0.01%
COCc1c(F)c(F)c(COC(=Nc2ccc(F)c(Cl)c2)C(C)C)c(F)c1F [Compound 505]	14 µg	0.09%	0.0024%	> 0.01%
CC(C)C(=Nc1cccc(C(F)(F)F)c1)OCc1cc(Oc2ccccc2)ccn1 [Compound 506]	40 µg	> 0.1%	0.005%	> 0.01%
CC(C)C(=Nc1cccc(C(F)(F)F)c1)OCc1ccnc(Oc2ccccc2)c1 [Compound 507]	93 µg	> 0.1%	0.002%	> 0.01%
CC(C)C(=Nc1cccc(C(F)(F)F)c1)OCc1ccnc(Oc2ccc(F)cc2)c1 [Compound 508]	> 100 µg	> 0.1%	0.013%	> 0.01%
CC(C)C(=Nc1cccc(C(F)(F)F)c1)OCc1cc(Oc2ccc(Cl)cc2)ccn1 [Compound 509]	79 µg	> 0.1%	0.0075%	> 0.01%
CC(C)C(=Nc1ccc(F)c(Cl)c1)OCc1ccnc(Oc2ccccc2)c1 [Compound 510]	54 µg	> 0.1%	0.017%	> 0.01%
CC(C)C(=Nc1ccc(F)c(Cl)c1)OCc1ccnc(Oc2ccc(F)cc2)c1 [Compound 511]	89 µg	> 0.1%	0.0012%	> 0.01%
CC(C)C(=Nc1ccc(OC(F)(F)F)cc1)OCc1cccc(Oc2ccccc2)n1 [Compound 550]	< 100 µg	> 0.1%	0.00034%	> 0.01%
CC(C)C(=Nc1ccc(Br)c(F)c1)OCc1cccc(Oc2ccc(Cl)cc2)n1 [Compound 551]	< 100 µg	0.035%	0.00075%	> 0.01%
CCc1ccc(N=C(OCc2cccc(Oc3ccc(Cl)cc3)n2)C(C)C)cc1 [Compound 552]	> 100 µg	> 0.1%	0.0016%	> 0.01%
CC(C)C(=Nc1ccc(Cl)cc1)OCc1cccc(Oc2ccccc2)n1 [Compound 553]	< 100 µg	0.1%	< 0.1%	> 0.01%
CC(C)C(=Nc1ccc(Cl)cc1)OCc1cccc(Oc2ccc(Cl)cc2)n1 [Compound 554]	> 100 µg	0.04%	0.00075%	> 0.01%
CC(C)C(=Nc1ccc(Cl)c(C(F)(F)F)c1)OCc1cccc(Oc2ccccc2)n1 [Compound 555]	< 100 µg	> 0.1%	0.002%	> 0.01%
CC(C)C(=Nc1ccc2c(c1)OC(F)(F)O2)OCc1cccc(Oc2ccccc2)n1 [Compound 556]	< 100 µg	0.04%	0.0007%	> 0.01%
